Patent US11938103B2, “Potentiation of helminth treatment” (Elanco Tiergesundheit AG, priority 2018, dated 2024)

Legend:
[1] = test system: Fasciola hepatica (immature stage); experiment: Efficacy against immature stage F. hepatica infection in sheep (Example 2); assay type: in vivo; conditions: single oral dose day 42, livers day 91, diamphenethide 40 mg/kg, clorsulon 3.5 mg/kg, combination 40 and 3.5 mg/kg; for % Efficacy using Arithmetic mean / % Efficacy using Geometric Mean: vs untreated control
Procedure: In the following examples, all animals were confirmed free of infection with F. hepatica and found clinically healthy by a veterinarian prior to enrollment in the study. Doses were administered orally from suitably sized disposable syringes. […] Differences between treatment groups were analyzed by analysis of variance methods (ANOVA), as the assumptions of normal distribution were satisfied for log-transformed fluke count and log-transformed bodyweight, as well as for (untransformed) fluke measurements. Arithmetic […]), geometric […]), median and ranges were summarized for fluke counts, fluke measurements and bodyweight. A constant of one was applied for calculation of geometric means of fluke counts. […] On day 0, the sheep were experimentally infected with a target of 200 “Sunny Corner” (laboratory strain reference […]. hepatica […]. The required number of […] prepared for infection in a water and 4% carboxymethylcellulose solution. Each infective dose was followed by water administered orally. Syringes were subsequently checked post-infection for retained […] was determined that the sheep were administered between 93.5% and 100% (98.3% on average) of the target infective dose. The sheep were randomized into treatment groups on the basis of day 41 body weight and allocated to groups as denoted in Table 2.1. Body weight was determined one day prior to treatments, which were measured by volume and rounded to the nearest 0.1 mL. On day 42, and before feeding, the individual animals were treated once only with the Treatment in Table 2.1. Once the animals had been treated they were returned to their pens and fed within one hour. Untreated control animals were also fed at this time. The liver with gall bladder and common bile duct intact were recovered on day 91 from each animal and processed for F. hepatica counts. The assessment of efficacy was based on the number of live fluke removed from the liver. An ANOVA model was used to compare fluke counts between treatment groups. The model was applied to the log-transformed counts. There was one fixed effect, treatment group.

[2] = test system: Fasciola hepatica (early immature stage); experiment: Efficacy against early immature stage F. hepatica infection in sheep (Example 3); assay type: in vivo; conditions: single oral dose day 14, livers day 91, diamphenethide 20 mg/kg, clorsulon 10 mg/kg, combination 20 and 10 mg/kg; for % Efficacy using Arithmetic mean / % Efficacy using Geometric Mean: vs untreated control
Procedure: (§1) Doses were administered orally from suitably sized disposable syringes.
(§2) The fluke counts and body weights were log-transformed (after adding a constant of 1 to the fluke counts only) and the distribution of the transformed data checked to see if they satisfied the assumption of normal distribution.
(§3) Arithmetic means (Amean), geometric means (Gmean), median and ranges were summarized for fluke counts, fluke measurements and bodyweight. A constant of one was applied for calculation of geometric means of fluke counts.
(§4) The percentage efficacy for each treated group was calculated as follows: % Efficacy=100×(FCC−FCT)/FCC where FCC is the arithmetic mean fluke count of the control group and FCT is the arithmetic mean fluke count of the treated group. The formula was also applied using mean geometric fluke counts; these were calculated using log transformed data with 1 added as a constant to each fluke count and then subtracted following transformation.
(§5) Note that expected synergy is defined as: 1−Efficacy(expected without synergy)=(1−EfficacyD)×(1−EfficacyC).
This study was to assess the efficacy of diamphenethide (20 mg/kg) given concurrently with clorsulon (10 mg/kg), diamphenethide alone (20 mg/kg), and clorsulon alone (10 mg/kg) against F. hepatica in sheep with treatment on day 14. This was a controlled, blinded, randomized study using sheep.
On day 0, the sheep were experimentally infected with a target of 200 “Sunny Corner” (laboratory strain reference Fashep-66) F. hepatica metacercariae. The required number of metacercariae were prepared for infection in a water and 2% carboxymethylcellulose solution. Each infective dose was followed by water administered orally.
The sheep were randomized into treatment groups on the basis of day 13 body weight and allocated to groups as denoted in Table 3.1. Animals were treated on day 14 with a single dose as noted in Table 3.1.
Body weight was determined one day prior to treatments, which were measured by volume and rounded to the nearest 0.1 mL. On day 14, and before feeding, the individual animals were treated once only with the Treatment in Table 3.1. […] Untreated control animals were also fed at this time.
The liver with gall bladder and common bile duct intact were recovered on day 91 from each animal and processed for F. hepatica counts. The assessment of efficacy was based on the number of live fluke removed from the liver.
An ANOVA model was used to compare fluke counts between treatment groups. The model was applied to the log-transformed counts. There was one fixed effect, treatment group.

liver flukes = conditions: cited from earlier work
[3] = test system: Fasciola hepatica (immature stage); experiment: Efficacy against immature stage F. hepatica infection in cattle (Example 4); assay type: in vivo; conditions: single oral dose day 49, livers day 91 or 92, diamphenethide 60 mg/kg, clorsulon 5 mg/kg, combination 60 and 5 mg/kg; for % Efficacy using Arithmetic mean / % Efficacy using Geometric Mean: vs untreated control
Procedure: as §1, §2, §3, §4, §5
This study was to assess the efficacy of diamphenethide (60 mg/kg) given concurrently with clorsulon (5 mg/kg), diamphenethide alone (60 mg/kg), and clorsulon alone (5 mg/kg) against F. hepatica in cattle with treatment on day 49. This was a controlled, blinded, randomized study.
(§6) On day 0, the calves were experimentally infected with a single isolate of approximately 382 Sunny Corner (Fashep-66) isolate F. hepatica metacercariae. The required number of metacerceriae were made up in 2% carboxymethyl cellulose. Syringes were checked post-infection for retained metacerceriae. The infection was administered orally and each infective dose was followed by water administered orally. The cattle were randomized into treatment groups on the basis of day 48 body weight and allocated to groups as denoted in Table 4.1.
Body weight was determined one day prior to treatment. All treatments were measured by volume and rounded to the nearest 0.1 mL. On day 49, and before feeding, the individual animals were treated once only with the treatment in Table 4.1. […] Untreated control animals were also fed at this time.
(§7) The liver with gall bladder and bile ducts intact were recovered from each animal on day 91 or 92 and processed for F. hepatica counts. The assessment of efficacy was based on the number of live fluke removed from the liver.

[4] = test system: Fasciola hepatica (early immature stage); experiment: Efficacy against early immature stage F. hepatica infection in cattle (Example 5); assay type: in vivo; conditions: single oral dose day 21, livers day 91 or 92, diamphenethide 40 mg/kg, clorsulon 7 mg/kg, combination 40 and 7 mg/kg; for % Efficacy using Arithmetic mean / % Efficacy using Geometric Mean: vs untreated control
Procedure: as §1, §2, §3, §4, §5
This study was to assess the efficacy of diamphenethide (40 mg/kg) given concurrently with clorsulon (7 mg/kg), diamphenethide alone (40 mg/kg), and clorsulon alone (7 mg/kg) against F. hepatica in cattle with treatment on day 21. This was a controlled, blinded, randomized study.
as §6, with “350” for “382”, “20” for “48”, “5.1.” for “4.1.”
Body weight was determined one day prior to treatment. All treatments were measured by volume and rounded to the nearest 0.1 mL. On day 21, and before feeding, the individual animals were treated once only with the treatment in Table […]. […] Untreated control animals were also fed at this time.
as §7

[5] = deacylation to DAMD; cited from earlier work
Fasciola hepatica = conditions: cited from earlier work

Nc1cc(C(Cl)=C(Cl)Cl)c(S(N)(=O)=O)cc1S(N)(=O)=O [Clorsulon, 4-amino-6-(1,2,2-trichloroethenyl)benzene-1,3-disulfonamide]
Fluke Count, Arithmetic mean [1]: 81.8
Fluke Count, Geometric Mean [1]: 79.7
% Efficacy using Arithmetic mean [1]: 9.3%
% Efficacy using Geometric Mean [1]: 8.4%
Fluke Count, Arithmetic mean [2]: 99.8
Fluke Count, Geometric Mean [2]: 90.6
% Efficacy using Arithmetic mean [2]: 28.2%
% Efficacy using Geometric Mean [2]: 34.0%
Effectiveness by host species (liver flukes; cattle versus sheep): more effective in cattle than in sheep
Effectiveness against mature flukes (liver flukes; mature flukes): effective against mature flukes
Fluke Count, Arithmetic mean [3]: 72.6
Fluke Count, Geometric Mean [3]: 70.7
% Efficacy using Arithmetic mean [3]: 13.6%
% Efficacy using Geometric Mean [3]: 15.3%
Fluke Count, Arithmetic mean [4]: 45.2
Fluke Count, Geometric Mean [4]: 42.4
% Efficacy using Arithmetic mean [4]: 42.2%
% Efficacy using Geometric Mean [4]: 42.1%

CC(=O)Nc1ccc(OCCOCCOc2ccc(NC(C)=O)cc2)cc1 [Diamphenethide, N-[4-[2-[2-(4-acetamidophenoxy)ethoxy]ethoxy]phenyl]acetamide]
Fluke Count, Arithmetic mean [1]: 57.6
Fluke Count, Geometric Mean [1]: 50.9
% Efficacy using Arithmetic mean [1]: 36.1%
% Efficacy using Geometric Mean [1]: 41.5%
Fluke Count, Arithmetic mean [2]: 89.0
Fluke Count, Geometric Mean [2]: 87.5
% Efficacy using Arithmetic mean [2]: 40.0%
% Efficacy using Geometric Mean [2]: 36.3%
Metabolism [5]: rapidly metabolized by deacylation
Effectiveness against early immature flukes (liver flukes; early immature flukes up to 6 weeks of age): highly effective
Activity against flukes as they develop to maturity (liver flukes; flukes developing to maturity): progressively lower activity
Fluke Count, Arithmetic mean [3]: 73.8
Fluke Count, Geometric Mean [3]: 61.8
% Efficacy using Arithmetic mean [3]: 12.1%
% Efficacy using Geometric Mean [3]: 26.0%
Fluke Count, Arithmetic mean [4]: 54.2
Fluke Count, Geometric Mean [4]: 53.1
% Efficacy using Arithmetic mean [4]: 30.7%
% Efficacy using Geometric Mean [4]: 27.5%

Cc1cc(C(C#N)c2ccc(Cl)cc2)c(Cl)cc1NC(=O)c1cc(I)cc(I)c1O (stereo not drawn) [closantel]
Side resistance in rafoxanide-resistant F. hepatica isolates (Fasciola hepatica; F. hepatica isolates, New South Wales): side resistance to closantel was evident

O=C(Nc1ccc(Oc2ccc(Cl)cc2)c(Cl)c1)c1cc(I)cc(I)c1O [rafoxanide]
Isolates showing resistance at recommended doses (Fasciola hepatica; ten of seventeen F. hepatica isolates from different geographical regions): 58.8%
